Test results from patent US7915291B2, “Hepatitis C virus inhibitors” (Bristol-Myers Squibb Company, priority 2002, dated 2011).

What was measured:
[1] = biological target: HCV NS3/4A protease complex, BMS strain (UniProt P27958, C1454S/C1711G, species not given/STRAIN_BMS); assay: Recombinant HCV NS3/4A protease complex FRET peptide assay (BMS strain); format: biochemical, HCV genotype 1a; settings: NS3/4A BMS strain; read-out: IC50 range
Method in brief: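 Recombinant BMS-strain NS3/4A (His-tagged NS4A with three-lysine tail, E. coli) at 2-3 nM preincubated 1 min with compound, then 2 μM ester-linked NS4A/NS4B-based FRET peptide added. Fluorescence followed in real time ~15 min at 25° C. Percent inhibition from slope of linear fluorescence change versus no-compound control.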

[2] = test system: HCV replicon in Huh7 cells; assay: HCV replicon cell-based assay; set-up: species or system HCV strain 1B; settings: Hepatitis C virus, Huh-7; HCV replicon, Huh7 cells; read-out: EC50 range

Structure (SMILES) | IC50 [1] [µM] | EC50 [2] [µM]
C=CC1C[C@]1(NC(=O)[C@@H]1C[C@@H](Oc2ccc3c(Cl)nccc3c2)CN1C(=O)[C@@H](NC(=O)OC(C)(C)C)C(C)(C)C)C(=O)NS(=O)(=O)C1CC1 (stereo partly drawn) [Compound 188, BOCNH-P3(L-tert-BuGly)-P2[(4R)-(1-chloro isoquinolin-6-oxo)-S -proline]-P1(1R,2S Vinyl Acca)-CONHSO2-Cyclopropane] | < 0.1 | 0.1 to 1
C=CC1C[C@]1(NC(=O)[C@@H]1C[C@@H](Oc2nccc3cc(CC)ccc23)CN1C(=O)[C@@H](NC(=O)OC(C)(C)C)C(C)(C)C)C(=O)NS(=O)(=O)C1CC1 (stereo partly drawn) [Compound 189, BOCNH-P3(L-tert-BuGly)-P2[(4R)-(6-ethyl isoquinolin-1-oxo)-S -proline]-P1(1R,2S Vinyl Acca)-CONHSO2-Cyclopropane] | < 0.1 | 0.1 to 1
C=CC1C[C@]1(NC(=O)[C@@H]1C[C@@H](Oc2nccc3cc(C(C)C)ccc23)CN1C(=O)[C@@H](NC(=O)OC(C)(C)C)C(C)(C)C)C(=O)NS(=O)(=O)C1CC1 (stereo partly drawn) [Compound 190, BOCNH-P3(L-tert-BuGly)-P2[(4R)-(6-isopropyl isoquinolin-1-oxo)-S-proline]-P1(1R,2S Vinyl Acca)-CONHSO2-Cyclopropane] | < 0.1 | 0.1 to 1
C=CC1C[C@]1(NC(=O)[C@@H]1C[C@@H](Oc2nccc3cc(C(C)(C)C)ccc23)CN1C(=O)[C@@H](NC(=O)OC(C)(C)C)C(C)(C)C)C(=O)NS(=O)(=O)C1CC1 (stereo partly drawn) [Compound 191, BOCNH-P3(L-tert-BuGly)-P2[(4R)-(6-tert-butyl isoquinolin-1-oxo)-S-proline]-P1(1R,2S Vinyl Acca)-CONHSO2-Cyclopropane] | < 0.1 | 0.1 to 1
C=CC1C[C@]1(NC(=O)[C@@H]1C[C@@H](Oc2nccc3cc(OC(C)C)ccc23)CN1C(=O)[C@@H](NC(=O)OC(C)(C)C)C(C)(C)C)C(=O)NS(=O)(=O)C1CC1 (stereo partly drawn) [Compound 192, BOCNH-P3(L-tert-BuGly)-P2[(4R)-(6-isopropoxy isoquinolin-1-oxo)-S-proline]-P1(1R,2S Vinyl Acca)-CONHSO2-Cyclopropane] | < 0.1 | < 0.1
C=CC1C[C@]1(NC(=O)[C@@H]1C[C@@H](Oc2nccc3cc(OC(C)(C)C)ccc23)CN1C(=O)[C@@H](NC(=O)OC(C)(C)C)C(C)(C)C)C(=O)NS(=O)(=O)C1CC1 (stereo partly drawn) [Compound 193, BOCNH-P3(L-tert-BuGly)-P2[(4R)-(6-tert-butoxy isoquinolin-1-oxo)-S-proline]-P1(1R,2S Vinyl Acca)-CONHSO2-Cyclopropane] | < 0.1 | 0.1 to 1
C=CC1C[C@]1(NC(=O)[C@@H]1C[C@@H](Oc2nncc3ccccc23)CN1C(=O)[C@@H](NC(=O)OC(C)(C)C)C(C)(C)C)C(=O)NS(=O)(=O)C1CC1 (stereo partly drawn) [Compound 194, BOCNH-P3(L-tert-BuGly)-P2[(4R)-(phthalazine-1-oxo)-S-proline]-P1(1R,2S Vinyl Acca)-CONHSO2-Cyclopropane] | < 0.1 | 0.1 to 1
C=CC1C[C@]1(NC(=O)[C@@H]1C[C@@H](Oc2nnc(Cl)c3ccccc23)CN1C(=O)[C@@H](NC(=O)OC(C)(C)C)C(C)(C)C)C(=O)NS(=O)(=O)C1CC1 (stereo partly drawn) [Compound 195, BOCNH-P3(L-tert-BuGly)-P2[(4R)-(4-chloro phthalazine-1-oxo)-S -proline]-P1(1R,2S Vinyl Acca)-CONHSO2-Cyclopropane] | < 0.1 | < 0.1
C=CC1C[C@]1(NC(=O)[C@@H]1C[C@@H](Oc2nnc(-n3ccnc3)c3ccccc23)CN1C(=O)[C@@H](NC(=O)OC(C)(C)C)C(C)(C)C)C(=O)NS(=O)(=O)C1CC1 (stereo partly drawn) [Compound 196, BOCNH-P3(L-tert-BuGly)-P2[(4R)-(4-(imidazo-1-yl)phthalazine-1-oxo)-S-proline]-P1(1R,2S Vinyl Acca)-CONHSO2-Cyclopropane] | < 0.1 | 1 to 10
C=CC1C[C@]1(NC(=O)[C@@H]1C[C@@H](Oc2nnc(-n3ccnc3)c3ccccc23)CN1C(=O)[C@@H](N)C(C)(C)C)C(=O)NS(=O)(=O)C1CC1 (stereo partly drawn) [Compound 197, NH2—P3(L-tert-BuGly)-P2[(4R)-(4-(imidazo-1-yl)phthalazine-1-oxo)-S-proline]-P1(1R,2S Vinyl Acca)-CONHSO2-Cyclopropane] | 0.1 to 1 | 10 to 100
C=CC1C[C@]1(NC(=O)[C@@H]1C[C@@H](Oc2nnc(-n3cncn3)c3ccccc23)CN1C(=O)[C@@H](NC(=O)OC(C)(C)C)C(C)(C)C)C(=O)NS(=O)(=O)C1CC1 (stereo partly drawn) [Compound 198, BOCNH-P3(L-tert-BuGly)-P2[(4R)-(4-(1,2,4-triazo-1-yl)phthalazine-1-oxo)-S-proline]-P1(1R,2S Vinyl Acca)-CONHSO2-Cyclopropane] | < 0.1 | 0.1 to 1
C=CC1C[C@]1(NC(=O)[C@@H]1C[C@@H](Oc2nnc(OC(C)C)c3ccccc23)CN1C(=O)[C@@H](NC(=O)OC(C)(C)C)C(C)(C)C)C(=O)NS(=O)(=O)C1CC1 (stereo partly shown) [Compound 199] | < 0.1 | 0.1 to 1
C=CC1C[C@]1(NC(=O)[C@@H]1C[C@@H](Oc2nnc(OCC)c3ccccc23)CN1C(=O)[C@@H](NC(=O)OC(C)(C)C)C(C)(C)C)C(=O)NS(=O)(=O)C1CC1 (stereo partly drawn) [Compound 200, BOCNH-P3(L-t-BuGly)-P2-[(4R)-(4-ethoxyphthalazine-1-oxo)-S-proline]-P1(1R,2S VinylAcca)-CONHSO2Cyclopropane] | < 0.1 | < 0.1
C=CC1C[C@]1(NC(=O)[C@@H]1C[C@@H](Oc2nnc(OC)c3ccccc23)CN1C(=O)[C@@H](NC(=O)OC(C)(C)C)C(C)(C)C)C(=O)NS(=O)(=O)C1CC1 (stereo partly drawn) [Compound 201, BOCNH-P3(L-t-BuGly)-P2-[(4R)-(4-methoxyphthalazine-1-oxo)-S -proline]-P1(1R,2S VinylAcca)-CONHSO2Cyclopropane] | < 0.1 | < 0.1
C=CC1C[C@]1(NC(=O)[C@@H]1C[C@@H](Oc2nnc(O)c3ccccc23)CN1C(=O)[C@@H](NC(=O)OC(C)(C)C)C(C)(C)C)C(=O)NS(=O)(=O)C1CC1 (stereo partly drawn) [Compound 202, BOCNH-P3(L-t-BuGly)-P2[(4R)-(4-hydroxyphthalazine-1-oxo)-S -proline]P1(1R,2S VinylAcca)-CONHSO2Cyclopropane] | < 0.1 | 1 to 10
C=CC1C[C@]1(NC(=O)[C@@H]1C[C@@H](Oc2ccc3c(Cl)nccc3c2SCCC)CN1C(=O)[C@@H](NC(=O)OC(C)(C)C)C(C)(C)C)C(=O)NS(=O)(=O)C1CC1 (stereo partly drawn) [Compound 204, BOCNH-P3(L-t-BuGly)-P2[(4R)-(1-Chloro-5propylthio -isoquinolin-6-oxo)-S-proline]-P1(1R,2S VinylAcca)-CONHSO2Cyclopropane] | < 0.1 | 0.1 to 1
C=CC1C[C@]1(NC(=O)[C@@H]1C[C@@H](Oc2nccc3c(SCCC)c(OCC)ccc23)CN1C(=O)[C@@H](NC(=O)OC(C)(C)C)C(C)(C)C)C(=O)NS(=O)(=O)C1CC1 (stereo partly drawn) [Compound 206, BOCNH-P3(L-t-BuGly)-P2[(4R)-(6-ethoxy-5propylthio -isoquinoline-1-oxo)-S-proline]-P1(1R,2S VinylAcca)-CONHSO2Cyclopropane] | < 0.1 | < 0.1
C=CC1C[C@]1(NC(=O)[C@@H]1C[C@@H](Oc2nccc3c(SC)c(OC)ccc23)CN1C(=O)[C@@H](NC(=O)OC(C)(C)C)C(C)(C)C)C(=O)NS(=O)(=O)C1CC1 (stereo partly drawn) [Compound 207, BOCNH-P3(L-t-BuGly)-P2 [(4R)-(6-methoxy-5-methylthio-isoquinolin-1-oxo)-S-proline]-P1(1R,2S VinylAcca)-CONHSO2Cyclopropane] | < 0.1 | < 0.1
C=CC1C[C@]1(NC(=O)[C@@H]1C[C@@H](Oc2nccc3c(C(=O)c4cccs4)c(OC)ccc23)CN1C(=O)[C@@H](NC(=O)OC(C)(C)C)C(C)(C)C)C(=O)NS(=O)(=O)C1CC1 (stereo partly shown) [Compound 209] | < 0.1 | 0.1 to 1
C=CC1C[C@]1(NC(=O)[C@@H]1C[C@@H](Oc2nccc3cc(C)ccc23)CN1C(=O)[C@@H](NC(=O)OC(C)(C)C)C(C)(C)C)C(=O)NS(=O)(=O)C1CC1 (stereo partly drawn) [Compound 210, BOCNH-P3(L-tert-BuGly)-P2[(4R)-(6-methyl isoquinolin-1-oxo)-S -proline]-P1(1R,2S Vinyl Acca)-CONHSO2-Cyclopropane] | < 0.1 | < 0.1
C=CC1C[C@]1(NC(=O)[C@@H]1C[C@@H](Oc2nccc3c4c(ccc23)OCO4)CN1C(=O)[C@@H](NC(=O)OC(C)(C)C)C(C)(C)C)C(=O)NS(=O)(=O)C1CC1 (stereo partly drawn) [Compound 211, BOCNH-P3(L-t-BuGly)-P2-[(4R)-(1,3-Dioxa-7-aza-cyclopenta[α]naphthalen-6-ol)-S -proline]-P1(1R,2S VinylAcca)-CONHSO2Cyclopropane] | < 0.1 | < 0.1
C=CC1C[C@]1(NC(=O)[C@@H]1C[C@@H](Oc2cc3c(Cl)nccc3c3c2OCO3)CN1C(=O)[C@@H](NC(=O)OC(C)(C)C)C(C)(C)C)C(=O)NS(=O)(=O)C1CC1 (stereo partly drawn) [Compound 212, BOCNH-P3(L-t-BuGly)-P2[(4R)-(6-Chloro-1,3-dioxa-7aza -cyclopenta[α]naphthalen-4-oxo)-S-proline]-P1(1R,2S VinylAcca)-CONHSO2Cyclopropane] | < 0.1 | < 0.1
C=CC1C[C@]1(NC(=O)[C@@H]1C[C@@H](Oc2nccc3c4c(c(SC)cc23)OCO4)CN1C(=O)[C@@H](NC(=O)OC(C)(C)C)C(C)(C)C)C(=O)NS(=O)(=O)C1CC1 (stereo partly drawn) [Compound 213, BOCNH-P3(L-t-BuGly)-P2[(4R)-(4-methylthio-1,3-dioxa-7-aza-cyclopenta[a]naphthalen-6-yloxy)-S-proline]-P1(1R,2S VinylAcca)-CONHSO2Cyclopropane] | < 0.1 | < 0.1
